Measurements reported in patent US9856273B2, “ETP derivatives” (priority 2012, dated 2018).

Experiments:
MV4-11 AML SQ xenografts = format: in vivo, mouse; conditions: MV4-11 xenograft, 5 mg/kg or 10 mg/kg orally once daily for 20 days
Experimental: Human MV4-11 acute myeloid leukemia (AML) cancer cells (5×10^6) that have FLT-ITD mutations were resuspended in serum-free RPMI1640 medium and Matrigel (ration of 1:1) and subcutaneously injected into the flank of 5-6 weeks old female NOD/SCID/IL-2rg(ko)(NSG). When palpable tumor sizes reached at approximately 50 mm^3, mice were divided into three groups (vehicle=9, 5 mg/kg dose group=8, 10 dose mg/kg group=8). Then, S enantiomer was orally administered at 5 mg/kg or 10 mg/kg with vehicle (10% DMSO+30% Solutol+60% saline), once daily for 20 days. Tumor volumes were calculated by the formula 1/2a×b^2, where a is the long diameter, and b is the short diameter. Tumor volumes correlate with tumor weights. The statistical significance of group differences was analyzed using a Student's t-test with the two-tailed distribution. P values less than 0.05 were considered statistically significant.

MOLM-13 AML cells = assay: MTS cell viability assay; format: cell-based
Experimental: IC50 Determinations for Ovarian, Liver, Pancreatic, CML, AML Cancer Cell Lines (See e.g. FIGS. 4, 6A-6C, 21, 22A, 22B, 23, 24A-24C, 25A, 25B and 34): MTS assays were performed for cell viability. SKOV3 ovarian cancer, Huh-7 hepatocellular carcinoma, MIA-PaCa2 pancreatic cancer, KCL-22 CML, T315I mutant KCL-22 CML, MOLM-13 AML and MV4-11 AML cells were seeded in 96-well plates (5000 cells/well for solid tumors, 10000 cells/well for blood tumors), incubated overnight at 37° C. in 5% CO2, and exposed to racemic ETP69 or S enantiomer in a dose-dependent manner for 48 h. Dimethyl sulfoxide (DMSO) was used as the vehicle control. Viable cell numbers were determined by tetrazolium conversion to its formazan dye and absorbance was measured at 490 nm using an automated ELISA plate reader. Each experiment was performed in quadruplicate.

Structure (SMILES) | toxicity symptoms (MV4-11 AML SQ xenografts) | increase in inhibitory capacity when compared to the (R) enantiomer (MOLM-13 AML cells) [fold]
CN1C(=O)[C@@]23C[C@](C)(C#N)[C@H](c4ccc5c(c4)OCO5)N2C(=O)[C@]1(C)SS3 (single isomer, unassigned) [ETP417] | no observable toxicity symptoms | 
CN1C(=O)[C@@]23C[C@](C)(C#N)[C@H](c4ccc5c(c4)OCO5)N2C(=O)[C@]1(C)SS3 [(S) enantiomer of ETP69, (3S,6S,7S,8aS)-6-(benzo[d][1,3]dioxol-5-yl)-2,3,7-trimethyl-1,4-dioxohexahydro-6H-3,8a-epidithiopyrrolo[1,2-a]pyrazine-7-carbonitrile] |  | ~4
